Reference: ChEMBL document CHEMBL4811291, “Discovery of macrocyclic HDACs 1, 2, and 3 selective inhibitors for HIV latency reactivation” (Bioorg Med Chem Lett, 2021)

Columns and labels:
Histone deacetylase 8 = molecular target: T1, Histone deacetylase 8 (Homo sapiens, UniProt Q9BY41); test: Inhibition of HDAC8 (unknown origin)
T1 sequence (Q9BY41 whole entry): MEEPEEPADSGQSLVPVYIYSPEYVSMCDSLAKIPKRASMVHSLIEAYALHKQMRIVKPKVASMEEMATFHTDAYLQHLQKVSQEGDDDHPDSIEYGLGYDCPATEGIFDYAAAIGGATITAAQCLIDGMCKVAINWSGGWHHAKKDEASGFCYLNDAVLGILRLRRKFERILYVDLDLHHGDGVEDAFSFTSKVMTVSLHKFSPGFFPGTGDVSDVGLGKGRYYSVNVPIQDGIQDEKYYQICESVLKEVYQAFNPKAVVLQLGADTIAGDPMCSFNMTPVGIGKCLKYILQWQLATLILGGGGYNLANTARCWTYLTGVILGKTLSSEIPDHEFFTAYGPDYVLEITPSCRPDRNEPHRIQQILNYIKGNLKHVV

[1] = system: Human immunodeficiency virus; test: Reactivation of HIV latency infected in human 2C4 cells in presence of 0.1 % NHS by luciferase reporter gene assay; format: functional, organism-based
[2] = system: Human immunodeficiency virus; test: Reactivation of HIV latency infected in human 2C4 cells in presence of 5 % NHS by luciferase reporter gene assay; format: functional, organism-based
Histone deacetylase 2 = Histone deacetylase 2 (Homo sapiens, UniProt Q92769); test: Inhibition of HDAC2 (unknown origin)
Sequence of Histone deacetylase 2 (Q92769 whole entry): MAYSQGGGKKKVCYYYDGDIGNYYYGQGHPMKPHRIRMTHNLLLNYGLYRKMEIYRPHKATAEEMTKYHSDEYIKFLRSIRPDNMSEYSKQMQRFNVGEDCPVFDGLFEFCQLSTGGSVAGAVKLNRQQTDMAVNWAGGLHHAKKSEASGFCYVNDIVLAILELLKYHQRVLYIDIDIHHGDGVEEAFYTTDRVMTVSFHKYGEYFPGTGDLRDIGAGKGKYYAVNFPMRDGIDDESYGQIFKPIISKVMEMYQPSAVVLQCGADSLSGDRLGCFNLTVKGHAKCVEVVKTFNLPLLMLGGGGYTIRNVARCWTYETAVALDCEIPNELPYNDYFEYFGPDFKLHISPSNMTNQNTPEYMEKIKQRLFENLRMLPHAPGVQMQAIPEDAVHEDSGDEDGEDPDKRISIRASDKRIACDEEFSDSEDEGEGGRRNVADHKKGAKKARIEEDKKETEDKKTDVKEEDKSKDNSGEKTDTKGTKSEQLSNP

[3] = molecular target: T2, Protein deacetylase HDAC6 (Homo sapiens, UniProt Q9UBN7); test: Inhibition of HDAC6 (unknown origin)
T2 sequence (Q9UBN7 whole entry): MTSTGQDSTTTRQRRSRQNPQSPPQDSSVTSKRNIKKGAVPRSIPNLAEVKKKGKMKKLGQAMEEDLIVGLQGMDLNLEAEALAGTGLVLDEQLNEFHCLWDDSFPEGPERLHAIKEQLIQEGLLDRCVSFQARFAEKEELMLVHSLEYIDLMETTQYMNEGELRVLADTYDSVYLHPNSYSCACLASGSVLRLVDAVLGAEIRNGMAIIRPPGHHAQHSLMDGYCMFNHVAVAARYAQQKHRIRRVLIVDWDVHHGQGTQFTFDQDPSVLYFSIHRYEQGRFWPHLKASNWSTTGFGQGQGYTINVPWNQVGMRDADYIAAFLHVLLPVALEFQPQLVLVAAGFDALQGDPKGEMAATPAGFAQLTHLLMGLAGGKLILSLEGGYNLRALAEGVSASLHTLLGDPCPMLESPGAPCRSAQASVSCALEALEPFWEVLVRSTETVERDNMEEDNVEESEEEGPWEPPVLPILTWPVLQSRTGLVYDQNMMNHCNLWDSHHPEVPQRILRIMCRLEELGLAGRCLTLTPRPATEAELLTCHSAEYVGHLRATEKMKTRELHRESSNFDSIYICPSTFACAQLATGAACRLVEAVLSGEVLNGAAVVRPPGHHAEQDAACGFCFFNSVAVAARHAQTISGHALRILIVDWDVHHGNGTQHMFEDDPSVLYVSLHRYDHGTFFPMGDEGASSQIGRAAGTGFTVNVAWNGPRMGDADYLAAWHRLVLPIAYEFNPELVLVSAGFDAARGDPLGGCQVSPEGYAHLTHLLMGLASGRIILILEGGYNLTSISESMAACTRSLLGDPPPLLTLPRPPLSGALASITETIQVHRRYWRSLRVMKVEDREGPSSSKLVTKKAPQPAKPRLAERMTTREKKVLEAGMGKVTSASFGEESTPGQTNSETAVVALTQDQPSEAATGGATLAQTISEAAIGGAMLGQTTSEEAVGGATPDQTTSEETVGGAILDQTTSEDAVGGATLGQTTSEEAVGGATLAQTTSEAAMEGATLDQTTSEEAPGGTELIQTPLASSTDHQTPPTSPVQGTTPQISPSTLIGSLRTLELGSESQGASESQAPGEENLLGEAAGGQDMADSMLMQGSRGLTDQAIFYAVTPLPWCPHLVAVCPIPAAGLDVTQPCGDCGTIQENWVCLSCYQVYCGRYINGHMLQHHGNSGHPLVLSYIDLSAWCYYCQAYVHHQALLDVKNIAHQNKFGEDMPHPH

Histone deacetylase 1 = Histone deacetylase 1 (Homo sapiens, UniProt Q13547); test: Inhibition of HDAC1 (unknown origin)
Sequence of Histone deacetylase 1 (Q13547 whole entry): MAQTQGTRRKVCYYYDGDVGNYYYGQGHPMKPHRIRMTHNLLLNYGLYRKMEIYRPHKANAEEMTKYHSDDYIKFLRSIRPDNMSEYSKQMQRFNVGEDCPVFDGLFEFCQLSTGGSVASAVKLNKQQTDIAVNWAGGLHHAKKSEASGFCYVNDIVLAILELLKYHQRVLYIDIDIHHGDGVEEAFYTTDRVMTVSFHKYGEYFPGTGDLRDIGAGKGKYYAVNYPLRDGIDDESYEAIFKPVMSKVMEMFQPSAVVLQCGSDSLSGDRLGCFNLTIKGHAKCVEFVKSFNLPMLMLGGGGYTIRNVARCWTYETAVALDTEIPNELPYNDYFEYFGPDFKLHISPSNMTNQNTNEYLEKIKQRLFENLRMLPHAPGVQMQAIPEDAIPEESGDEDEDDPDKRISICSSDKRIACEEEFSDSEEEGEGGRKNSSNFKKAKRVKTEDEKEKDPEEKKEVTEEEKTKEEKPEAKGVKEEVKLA

Histone deacetylase 3 = Histone deacetylase 3 (Homo sapiens, UniProt O15379); test: Inhibition of HDAC3 (unknown origin)
Sequence of Histone deacetylase 3 (O15379 whole entry): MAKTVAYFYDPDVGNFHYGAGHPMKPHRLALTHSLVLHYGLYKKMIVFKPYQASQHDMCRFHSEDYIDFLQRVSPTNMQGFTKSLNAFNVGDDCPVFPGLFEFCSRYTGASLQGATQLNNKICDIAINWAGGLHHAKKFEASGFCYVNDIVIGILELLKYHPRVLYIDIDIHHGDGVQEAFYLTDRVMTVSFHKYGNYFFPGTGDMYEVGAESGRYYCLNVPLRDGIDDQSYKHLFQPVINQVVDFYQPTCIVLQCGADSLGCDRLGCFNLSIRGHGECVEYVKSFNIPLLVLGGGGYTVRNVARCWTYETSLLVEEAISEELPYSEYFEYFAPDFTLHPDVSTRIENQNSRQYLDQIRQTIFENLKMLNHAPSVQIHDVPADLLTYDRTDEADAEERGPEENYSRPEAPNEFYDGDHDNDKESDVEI

[4] = Tmax in Wistar Han rat at 10 mg/kg, po; format: ADME, organism-based; conditions: in vivo
[5] = Half life in Wistar Han rat at 2 mg/kg, iv; format: ADME, organism-based; conditions: in vivo
[6] = Oral bioavailability in Wistar Han rat at 10 mg/kg; format: ADME, organism-based; conditions: in vivo
[7] = Cmax in Wistar Han rat at 10 mg/kg, po; format: ADME, organism-based; parameters: route oral, dose 10 mg/kg; conditions: in vivo
[8] = Clearance in Wistar Han rat at 2 mg/kg, iv; format: ADME, organism-based; conditions: in vivo
Homo sapiens = species: Homo sapiens; test: Selectivity ratio of IC50 for HDAC8 (unknown origin) to IC50 for HDAC6 (unknown origin)
[9] = AUC in Wistar Han rat at 10 mg/kg, po; format: ADME, organism-based; parameters: dose 10 mg/kg; conditions: in vivo
[10] = Ratio of EC50 for reactivation of HIV latency infected in human 2C4 cells in presence of 5 % NHS by luciferase reporter gene assay to EC50 for reactivation of HIV latency infected in human 2C4 cells in presence of 0.1 % NHS by luciferase reporter gene assay; format: functional, Human immunodeficiency virus
[11] = Plasma concentration in Wistar Han rat at 10 mg/kg, po after 24 hrs; format: ADME, organism-based
[12] = Half life in Wistar Han rat at 0.05 mg/kg, iv; format: ADME, organism-based; conditions: in vivo
[13] = Clearance in Wistar Han rat at 0.05 mg/kg, iv; format: ADME, organism-based; conditions: in vivo
[14] = Human immunodeficiency virus 1, 2C4

IC50 (Histone deacetylase 8) [nM]	EC50 [1, 14] [nM]	EC50 [2, 14] [nM]	IC50 (Histone deacetylase 2) [nM]	IC50 [3] [nM]	IC50 (Histone deacetylase 1) [nM]	IC50 (Histone deacetylase 3) [nM]	SMILES	also measured
8420	1570	3020	668	5550	218	105	CCC(=O)CCCCC[C@@H]1NC(=O)C2CCN2CCCCCCOc2ccccc2-c2cnc1[nH]2 (stereo in doubt; 6)	–
> 900	5150	4730	260	858	16	56	CCC(=O)CCCCC[C@@H]1NC(=O)[C@H]2CC23CCN(CCCCCn2c(=O)ccc4cc(ccc42)-c2cnc1o2)CC3	–
–	351	376	3.7	–	–	–	CCC(=O)CCCCC[C@H](NC(=O)[C@H]1CC12CCN(C)CC2)c1ncc(-c2ccc3c(c2)C2CCC3C2)[nH]1 (stereo not given in full)	–
> 900	11	12	–	–	–	–	CCC(=O)CCCCC[C@@H]1NC(=O)[C@H]2CC23CCN(CCCCCCCCn2ccc4cc(c(OC)cc4c2=O)-c2cnc1[nH]2)CC3	Tmax [4]: 3 h; half-life [5]: 1.4 h; bioavailability [6]: 2.9%; Cmax [7]: 13 nM; clearance [8]: 96 mL/min/kg; Ratio IC50 (Homo sapiens): > 1000; AUC [9]: 0.04 µM·h; Ratio EC50 [10]: 1.1
15000	2470	2360	249	5750	37	12	CCC(=O)CCCCC[C@H](NC(=O)C1CN(C)C1)c1ncc(-c2ccccc2)[nH]1	–
–	193	165	–	–	–	–	CCC(=O)CCCCC[C@H](NC(=O)[C@H]1CC12CCN(CC)CC2)c1[nH]c(-c2ccc(F)cc2)nc1C(N)=O	–
> 900	73	76	0.86	> 900	–	–	CCC(=O)CCCCC[C@@H]1NC(=O)[C@H]2CC23CCN(C/C=C/CN2C4CCC2c2cc(ccc24)-c2cnc1[nH]2)CC3 (stereo not given in full)	–
–	1790	1980	–	> 900	–	–	CCC(=O)CCCCC[C@@H]1NC(=O)[C@H]2CC23CCN(CCCOCCCn2ccc4cc(ccc4c2=O)-c2cnc1[nH]2)CC3	–
–	–	–	–	680	–	–	CCC(=O)CCCCC[C@H](NC(=O)C1CN(C)C1)c1ncc(-c2cc3ccccc3nc2OC)[nH]1	–
> 900	> 40000	> 40000	–	> 900	–	–	CCC(=O)CCCCC[C@@H]1NC(=O)[C@H]2CC23CCN(CCOCCn2ccc4cc(ccc4c2=O)-c2cnc1[nH]2)CC3	Tmax [4]: 0.25 h; half-life [5]: 3.9 h; bioavailability [6]: 0.15%; concentration at 24 h [11]: 1 nM; Cmax [7]: 62 nM; clearance [8]: 3.9 mL/min/kg; AUC [9]: 0.11 µM·h
> 900	14	16	–	> 900	–	0.06	CCC(=O)CCCCC[C@@H]1NC(=O)[C@H]2CC23CCN(CCCCCCCCn2ccc4cc(ccc4c2=O)-c2cnc1[nH]2)CC3	Ratio IC50 (Homo sapiens): > 1000; half-life [12]: 2.8 h; Ratio EC50 [10]: 1.1; clearance [13]: 312 mL/min/kg
21500	3170	5090	911	5390	216	91	CCC(=O)CCCCC[C@@H]1NC(=O)C2CCN2CCCCCOc2ccccc2-c2cnc1[nH]2 (stereo in doubt; 4)	–

The remaining lines, values behind:

SMILES	IC50 (Histone deacetylase 8) [nM]	EC50 [1, 14] [nM]	EC50 [2, 14] [nM]	IC50 (Histone deacetylase 2) [nM]	IC50 [3] [nM]	IC50 (Histone deacetylase 1) [nM]	IC50 (Histone deacetylase 3) [nM]	also measured
CCC(=O)CCCCC[C@@H]1NC(=O)[C@H]2CC23CCN(CCCCN2C4CCC2c2cc(ccc24)-c2cnc1[nH]2)CC3 (stereo not given in full)	> 900	844	867	49	> 900	–	–	–
CCC(=O)CCCCC[C@H](NC(=O)[C@H]1CC12CCN(CC)CC2)c1[nH]c2nc1C(=O)NCCC/C=C/c1cccc-2c1	–	5240	19300	–	–	–	–	–
CCC(=O)CCCCC[C@H](NC(=O)[C@H]1CC12CCN(C)CC2)c1ncc(-c2ccc3c(=O)n(C)ccc3c2)[nH]1	–	–	130	–	–	–	–	–
CCC(=O)CCCCC[C@@H]1NC(=O)[C@H]2CCCCN2C(=O)[C@H]([C@@H](C)CC)NC(=O)[C@H](Cc2cn(OC)c3ccccc23)NC1=O	–	–	–	–	–	–	–	EC50 ([1]; 2c4): 125 nM; EC50 ([2]; 2c4): 587 nM
CCC(=O)CCCCC[C@H](NC(=O)C1CN(C)C1)c1[nH]c(-c2ccccc2)nc1C(N)=O	–	294	269	–	–	–	–	–
CCC(=O)CCCCC[C@@H]1NC(=O)[C@H]2CC23CCN(CCCCN2C4CCC2c2c(cccc24)-c2cnc1[nH]2)CC3 (stereo not given in full)	> 900	6270	9060	24	> 900	–	–	–
CCC(=O)CCCCC[C@@H]1NC(=O)[C@H]2CC23CCN(CCCOCCn2ccc4cc(ccc4c2=O)-c2cnc1[nH]2)CC3	> 900	> 40000	> 40000	–	> 900	–	–	–
CCC(=O)CCCCC[C@@H]1NC(=O)C2CCN2CCCCCCc2ccccc2-c2cnc1[nH]2 (stereo in doubt; 8)	–	–	–	1140	17500	355	188	–
CCC(=O)CCCCC[C@@H]1NC(=O)C2CCN2CCCCCCOc2ccccc2-c2cnc1[nH]2 (stereo in doubt; 5)	–	–	–	2830	–	682	242	–
CCC(=O)CCCCC[C@H](NC(=O)[C@H]1CC12CCN(CC)CC2)c1ncc(-c2ccc3c(=O)n(CC)ccc3c2)[nH]1	–	52	56	< 1.5	–	< 1.5	< 1.5	–
CCC(=O)CCCCC[C@H](NC(=O)[C@H]1CC12CCN(CC)CC2)c1[nH]c2nc1C(=O)NCCCCCc1cccc-2c1	> 900	> 40000	12000	> 900	> 900	–	–	–
CCC(=O)CCCCC[C@@H]1NC(=O)C2CCN2CCCCCOc2ccccc2-c2cnc1[nH]2 (stereo in doubt; 3)	–	–	–	8620	–	2560	791	–
CCC(=O)CCCCC[C@@H]1NC(=O)CN(C)CCCCOCCCCn2ccc3cc(ccc3c2=O)-c2cnc1[nH]2	> 900	2500	3510	–	> 900	–	–	–
CCC(=O)CCCCC[C@@H]1NC(=O)[C@H]2CC23CCN(CCCCCOc2ccc4cc(ccc4n2)-c2cnc1o2)CC3	> 900	> 40000	> 40000	–	> 900	–	–	–
CCC(=O)CCCCC[C@@H]1NC(=O)C2CCN2CCCCCCc2ccccc2-c2cnc1[nH]2 (stereo in doubt; 7)	–	–	–	5950	9830	2940	1220	–
CCC(=O)CCCCC[C@H](NC(=O)[C@H]1CC12CCN(CC)CC2)c1[nH]c2nc1C(=O)NCCC/C=C\c1cccc-2c1	90	1460	2880	–	> 900	–	–	–
